From PubChem BioAssay (NCI)
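96-well plates; 48 h exposure; 5 concentrations. Endpoints by linear interpolation between flanking doses. Not reached: highest tested concentration assigned. GI50 = concentration required for 50% inhibition of growth. TGI marks complete inhibition of growth.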

Legend:
Experiment in all cases: inhibition of tumour cell growth, NCI panel, 48 h
HOP-62 NSCLC = test system: HOP-62 NSCLC
SK-OV-3 ovarian = test system: SK-OV-3 ovarian
SK-MEL-2 melanoma = test system: SK-MEL-2 melanoma
CAKI-1 renal = test system: CAKI-1 renal
TK-10 renal = test system: TK-10 renal
HL-60(TB) leukemia = test system: HL-60(TB) leukemia
ACHN renal = test system: ACHN renal
SR leukemia = test system: SR leukemia
RPMI-8226 leukemia = test system: RPMI-8226 leukemia
OVCAR-5 ovarian = test system: OVCAR-5 ovarian
KM20L2 colon = test system: KM20L2 colon
SK-MEL-28 melanoma = test system: SK-MEL-28 melanoma
UO-31 renal = test system: UO-31 renal
IGROV1 ovarian = test system: IGROV1 ovarian
RXF 393 renal = test system: RXF 393 renal
UACC-62 melanoma = test system: UACC-62 melanoma
MOLT-4 leukemia = test system: MOLT-4 leukemia
SF-268 CNS = test system: SF-268 CNS
RXF-631 renal = test system: RXF-631 renal
HOP-92 NSCLC = test system: HOP-92 NSCLC
A498 renal = test system: A498 renal
NCI-H226 lung = test system: NCI-H226 lung
SN12C renal = test system: SN12C renal
NCI-H460 lung = test system: NCI-H460 lung
HCC-2998 colon = test system: HCC-2998 colon
SW-620 colon = test system: SW-620 colon
OVCAR-4 ovarian = test system: OVCAR-4 ovarian
U251 CNS = test system: U251 CNS
SNB-19 CNS = test system: SNB-19 CNS
K-562 leukemia = test system: K-562 leukemia
HCT-15 colon = test system: HCT-15 colon
SF-539 CNS = test system: SF-539 CNS
OVCAR-3 ovarian = test system: OVCAR-3 ovarian
SNB-75 CNS = test system: SNB-75 CNS
HT29 colon = test system: HT29 colon
NCI-H522 lung = test system: NCI-H522 lung
COLO 205 colon = test system: COLO 205 colon
SF-295 CNS = test system: SF-295 CNS
EKVX NSCLC = test system: EKVX NSCLC
HOP-18 NSCLC = test system: HOP-18 NSCLC
M14 melanoma = test system: M14 melanoma
CCRF-CEM leukemia = test system: CCRF-CEM leukemia
DLD-1 colon = test system: DLD-1 colon
LXFL 529 NSCLC = test system: LXFL 529 NSCLC
XF 498 CNS = test system: XF 498 CNS
A549 NSCLC = test system: A549 NSCLC
DMS 273 small cell lung = test system: DMS 273 small cell lung
KM12 colon = test system: KM12 colon
NCI-H23 lung = test system: NCI-H23 lung
HCT-116 colon = test system: HCT-116 colon
SK-MEL-5 melanoma = test system: SK-MEL-5 melanoma
786-0 renal = test system: 786-0 renal
LOX IMVI melanoma = test system: LOX IMVI melanoma
MALME-3M melanoma = test system: MALME-3M melanoma
UACC-257 melanoma = test system: UACC-257 melanoma
M19-MEL melanoma = test system: M19-MEL melanoma
OVCAR-8 ovarian = test system: OVCAR-8 ovarian
DMS 114 small cell lung = test system: DMS 114 small cell lung

## CCCCCCC(=O)OC[n+]1ccc2c(C)c3[nH]c4ccccc4c3c(C)c2c1
HOP-62 NSCLC
  TGI: 24.7 µM
SK-OV-3 ovarian
  TGI: 6.31 µM
SK-MEL-2 melanoma
  TGI: 37.8 µM
CAKI-1 renal
  TGI: 6.55 µM
TK-10 renal
  TGI: 14.3 µM
HL-60(TB) leukemia
  TGI: > 100 µM
ACHN renal
  TGI: 12.4 µM
SR leukemia
  TGI: 8.77 µM
RPMI-8226 leukemia
  TGI: 1.69 µM
OVCAR-5 ovarian
  TGI: 3.6 µM
KM20L2 colon
  TGI: 2.96 µM
SK-MEL-28 melanoma
  TGI: 3.1 µM
UO-31 renal
  TGI: 26 µM
IGROV1 ovarian
  TGI: 30.8 µM
RXF 393 renal
  TGI: 2.26 µM
UACC-62 melanoma
  TGI: 16.4 µM
MOLT-4 leukemia
  TGI: 12.7 µM
SF-268 CNS
  TGI: 2.52 µM
RXF-631 renal
  TGI: > 100 µM
HOP-92 NSCLC
  TGI: 23.9 µM
A498 renal
  TGI: 2.19 µM

## COc1cc(/C=C2\[C@H]3c4c(c(OC)c(C)c(OC)c4OC)C[C@@H](C(=O)N2Cc2ccccc2)N3C(=O)OCC(C)C)c(OC)c(C)c1OC
NCI-H226 lung
  TGI: 40.9 µM
SN12C renal
  TGI: > 100 µM
NCI-H460 lung
  TGI: > 100 µM
HCC-2998 colon
  TGI: > 100 µM
HOP-62 NSCLC
  TGI: > 100 µM
SW-620 colon
  TGI: > 31.6 µM
OVCAR-4 ovarian
  TGI: > 100 µM
U251 CNS
  TGI: > 100 µM
SK-OV-3 ovarian
  TGI: > 100 µM
SNB-19 CNS
  TGI: > 100 µM
K-562 leukemia
  TGI: > 100 µM
HCT-15 colon
  TGI: > 100 µM
SF-539 CNS
  TGI: > 100 µM
OVCAR-3 ovarian
  TGI: > 100 µM
SNB-75 CNS
  TGI: > 100 µM
HT29 colon
  TGI: > 100 µM
NCI-H522 lung
  TGI: > 100 µM
COLO 205 colon
  TGI: > 100 µM
SK-MEL-2 melanoma
  TGI: > 100 µM
CAKI-1 renal
  TGI: > 100 µM
TK-10 renal
  TGI: > 100 µM
SF-295 CNS
  TGI: > 100 µM
EKVX NSCLC
  TGI: > 100 µM
HOP-18 NSCLC
  TGI: > 100 µM
M14 melanoma
  TGI: > 100 µM
HL-60(TB) leukemia
  TGI: > 100 µM
CCRF-CEM leukemia
  TGI: > 100 µM
DLD-1 colon
  TGI: > 100 µM
ACHN renal
  TGI: > 100 µM
LXFL 529 NSCLC
  TGI: > 100 µM
SR leukemia
  TGI: > 100 µM
RPMI-8226 leukemia
  TGI: > 100 µM
XF 498 CNS
  TGI: > 100 µM
A549 NSCLC
  TGI: > 100 µM
DMS 273 small cell lung
  TGI: > 100 µM
OVCAR-5 ovarian
  TGI: > 100 µM
KM20L2 colon
  TGI: > 100 µM
SK-MEL-28 melanoma
  TGI: > 100 µM
KM12 colon
  TGI: > 100 µM
NCI-H23 lung
  TGI: > 100 µM
UO-31 renal
  TGI: > 100 µM
IGROV1 ovarian
  TGI: > 100 µM
HCT-116 colon
  TGI: > 100 µM
RXF 393 renal
  TGI: > 100 µM
SK-MEL-5 melanoma
  TGI: > 100 µM
UACC-62 melanoma
  TGI: > 100 µM
MOLT-4 leukemia
  TGI: > 100 µM
SF-268 CNS
  TGI: > 100 µM
786-0 renal
  TGI: > 100 µM
LOX IMVI melanoma
  TGI: > 100 µM
MALME-3M melanoma
  TGI: > 100 µM
UACC-257 melanoma
  TGI: > 100 µM
M19-MEL melanoma
  TGI: > 100 µM
HOP-92 NSCLC
  TGI: > 100 µM
OVCAR-8 ovarian
  TGI: > 100 µM
A498 renal
  TGI: > 100 µM

## N#C[S-].[Nd+3].c1cnc2c(c1)ccc1cccnc12.c1cnc2c(c1)ccc1cccnc12.c1cnc2c(c1)ccc1cccnc12
NCI-H226 lung
  TGI: 5.91 µM
SN12C renal
  TGI: 14.2 µM
HCC-2998 colon
  TGI: 20 µM
HOP-62 NSCLC
  TGI: 20.6 µM
SW-620 colon
  TGI: 24.7 µM
OVCAR-4 ovarian
  TGI: 14.4 µM
U251 CNS
  TGI: 12.4 µM
SK-OV-3 ovarian
  TGI: 12.5 µM
DMS 114 small cell lung
  GI50: 1.59 µM
  TGI: 4.67 µM
SNB-19 CNS
  TGI: 20.3 µM
K-562 leukemia
  TGI: > 100 µM
SF-539 CNS
  TGI: 14 µM
OVCAR-3 ovarian
  TGI: 16.1 µM
SNB-75 CNS
  TGI: 26.2 µM
HT29 colon
  TGI: 20.2 µM
NCI-H522 lung
  TGI: 18.1 µM
COLO 205 colon
  TGI: 15.6 µM
CAKI-1 renal
  TGI: 15.1 µM
TK-10 renal
  TGI: 22 µM
SF-295 CNS
  TGI: 0.991 µM
EKVX NSCLC
  TGI: 18.7 µM
HOP-18 NSCLC
  GI50: 0.787 µM
  TGI: 7.53 µM
M14 melanoma
  TGI: 6.17 µM
CCRF-CEM leukemia
  TGI: 3.85 µM
ACHN renal
  TGI: 13 µM
LXFL 529 NSCLC
  GI50: 1.84 µM
  TGI: 14.8 µM
SR leukemia
  TGI: > 100 µM
RPMI-8226 leukemia
  TGI: > 100 µM
XF 498 CNS
  GI50: 4 µM
  TGI: 9.61 µM
A549 NSCLC
  TGI: 10.5 µM
OVCAR-5 ovarian
  TGI: 15.3 µM
KM20L2 colon
  GI50: 1.11 µM
  TGI: 15.3 µM
SK-MEL-28 melanoma
  TGI: 32.1 µM
KM12 colon
  TGI: 22.6 µM
NCI-H23 lung
  TGI: 23.3 µM
UO-31 renal
  TGI: 11.2 µM
IGROV1 ovarian
  TGI: 25.3 µM
HCT-116 colon
  TGI: 6.43 µM
SK-MEL-5 melanoma
  TGI: 14.1 µM
UACC-62 melanoma
  TGI: 5.44 µM
MOLT-4 leukemia
  TGI: 6.64 µM
SF-268 CNS
  TGI: 43 µM
786-0 renal
  TGI: 11.8 µM
LOX IMVI melanoma
  TGI: 13.1 µM
MALME-3M melanoma
  TGI: 9.54 µM
M19-MEL melanoma
  GI50: 0.566 µM
  TGI: 3.63 µM
HOP-92 NSCLC
  TGI: 17.2 µM
A498 renal
  TGI: 13.6 µM
